# Reference: ChEMBL document CHEMBL1146676, “3-Amino-2-hydroxyamides and related compounds as inhibitors of methionine aminopeptidase-2” (Bioorg Med Chem Lett, 2004)
# Target: Methionine aminopeptidase 1 (Homo sapiens, UniProt P53582)
# Assay: Inhibitory activity against human methionine aminopeptidase-1
row,Structure (SMILES),IC50 [µM]
1,CCCSC[C@@H](N)C(O)C(=O)N[C@@H](C)C(=O)OCC (stereo partly specified),57
2,N[C@H](CC1CCCCC1)[C@H](O)C(=O)NOc1ccccc1,20
3,CCCSC[C@@H](N)[C@H](O)C(=O)NNc1ccc(C)cc1,5
4,C[C@H](NC(=O)[C@@H](O)[C@H](N)CC1CCCCC1)C(=O)O,> 100
5,CCOC(=O)[C@H](C)NC(=O)C(O)[C@H](N)CSCC1CCCCC1 (stereo partly specified),> 100
6,CCOC(=O)[C@@H](C)NC(=O)[C@@H](O)[C@H](N)CC1CCCCC1,> 100
7,CCOC(=O)[C@H](C)NC(=O)C(O)[C@H](N)CCSC (stereo partly specified),63
8,CCOC(=O)[C@H](C)NC(=O)C(O)[C@H](N)CSCC(C)C (stereo partly specified),66
9,CCOC(=O)C(C)(C)NC(=O)[C@@H](O)[C@H](N)CC1CCCCC1,> 100
10,CCOC(=O)[C@H](C)NC(=O)C(O)[C@H](N)CCC1CCCCC1 (stereo partly specified),137
11,CC(C)CSC[C@@H](N)[C@H](O)C(=O)NCCc1ccc(Cl)cc1Cl,53
12,COc1cccc(NC(=O)[C@@H](O)[C@H](N)CC2CCCCC2)c1,90
13,CCCSC[C@@H](N)[C@H](O)C(=O)NNC(=O)c1cccc(Cl)c1,11
14,CC(C)SCC[C@@H](N)[C@H](O)C(=O)NNC(=O)c1cccc(Cl)c1,56
15,N[C@H](C1CCCCC1)[C@H](O)C(=O)NNc1cccc2ccccc12,89
16,Cc1ccc(NNC(=O)[C@@H](O)[C@H](N)CC2CCCCC2)cc1,14
17,N[C@H](CC1CCCCC1)[C@H](O)C(=O)NNC(=O)c1cccc(Cl)c1,> 100
18,N[C@H](CSCC1CCCCC1)[C@H](O)C(=O)NCCc1ccc(Cl)cc1Cl,> 100
19,CCOC(=O)[C@H](C)NC(=O)C(O)[C@H](N)CSC(C)(C)C (stereo partly specified),14
20,N[C@H](CC1CCCCC1)[C@H](O)C(=O)NNc1cccc2ccccc12,58

row,Structure (SMILES),IC50 [µM]
1,N[C@H](CC1CCCCC1)[C@H](O)C(=O)NNC(=O)c1ccc2ccccc2c1,63
2,CCOC(=O)[C@H](C)NC(=O)C(O)[C@H](N)CC1CCCCC1 (stereo partly specified),84
3,Cc1ccc(NNC(=O)[C@@H](O)[C@H](N)CSCC(C)C)cc1,6.8
4,CCOC(=O)[C@H](C)NC(=O)C(O)[C@H](N)CCSCC (stereo partly specified),69
5,"N[C@H](C1CCCCCCC1)C(O)C(=O)NOc1ccccc1 (single isomer, unassigned)",> 100
6,Cc1ccc(NNC(=O)[C@@H](O)[C@H](N)CCSC(C)C)cc1,11
7,CCCSC[C@@H](N)[C@H](O)C(=O)NCCc1ccc(Cl)cc1Cl,24
8,CC(C)CSC[C@@H](N)[C@H](O)C(=O)N(C)Cc1cccc2ccccc12,19
9,"CC(C)SCC[C@@H](N)C(O)C(=O)NCCc1ccc(Cl)cc1Cl (single isomer, unassigned)",69
10,CCSCC[C@@H](N)[C@H](O)C(=O)NNC(=O)c1cccc(Cl)c1,8.7
11,CCOC(=O)[C@H](C)NC(=O)[C@@H](O)[C@H](N)CC1CCCCC1,84
12,CCSCC[C@@H](N)[C@H](O)C(=O)NNc1ccc(C)cc1,1.3
13,N[C@H](CC1CCCCC1)[C@H](O)C(=O)NCc1ccc2ccccc2c1,12
14,CCCC[C@@H](N)C(O)C(=O)N[C@@H](C)C(=O)OCC (stereo partly specified),100
15,CCOC(=O)[C@H](C)NC(=O)C(O)[C@H](N)CSC(C)C (stereo partly specified),13
16,CN(Cc1cccc2ccccc12)C(=O)[C@@H](O)[C@H](N)CC1CCCCC1,78
17,N[C@H](CC1CCCCC1)[C@H](O)C(=O)NCCc1ccc(Cl)cc1Cl,63
18,N[C@H](C1CCCCC1)C(O)C(=O)NOc1ccccc1 (stereo partly specified),95
19,N[C@H](CC1CCCCC1)[C@H](O)C(=O)NNC(=O)c1cc(Cl)ccc1Cl,> 100
20,N[C@H](C1CCCCC1)[C@H](O)C(=O)NNC(=O)c1cccc(Cl)c1,46

# The remaining lines, values ahead:
row,IC50 [µM],Structure (SMILES)
1,45,C[C@H](NC(=O)[C@@H](O)[C@H](N)CSCC1CCCCC1)c1cccc2ccccc12
2,8.9,CCSCC[C@@H](N)[C@H](O)C(=O)NNc1cccc2ccccc12
3,4.7,"CC(C)SCC[C@@H](N)C(O)C(=O)NOc1ccccc1 (single isomer, unassigned)"
4,11,CC(C)CSC[C@@H](N)[C@H](O)C(=O)N[C@@H](CO)c1ccccc1
5,12,"C[C@H](NC(=O)C(O)[C@H](N)CCc1ccccc1)c1cccc2ccccc12 (single isomer, unassigned)"
6,101,CCOC(=O)[C@H](C)NC(=O)C(O)[C@H](N)CCc1ccccc1 (stereo partly specified)
7,18,CC(C)SCC[C@@H](N)[C@H](O)C(=O)NNC(=O)c1ccc2ccccc2c1
8,15,CCSCC[C@@H](N)[C@H](O)C(=O)NNC(=O)c1ccc2ccccc2c1
9,79,N[C@H](C1CCCCC1)[C@H](O)C(=O)N[C@@H](CO)c1ccccc1
10,16,Cc1ccc(NNC(=O)[C@@H](O)[C@H](N)CCc2ccccc2)cc1
11,1.5,CC(C)CSC[C@@H](N)[C@H](O)C(=O)NOc1ccccc1
12,93,N[C@H](CCc1ccccc1)[C@H](O)C(=O)NNc1cccc2ccccc12
13,5.3,CC(NC(=O)[C@@H](O)[C@H](N)CC1CCCCC1)c1ccc2ccccc2c1 (stereo partly specified)
14,12,CCSCC[C@@H](N)[C@H](O)C(=O)N(C)Cc1cccc2ccccc12
15,81,CC(C)SCC[C@@H](N)[C@H](O)C(=O)N(C)Cc1cccc2ccccc12
16,13,"N[C@H](CCc1ccccc1)C(O)C(=O)NOc1ccccc1 (single isomer, unassigned)"
17,68,N[C@H](CC1CCCCC1)[C@H](O)C(=O)N[C@@H](CO)c1ccccc1
18,32,CC(C)SCC[C@@H](N)[C@H](O)C(=O)N[C@@H](CO)c1ccccc1
19,75,N[C@H](CCc1ccccc1)[C@H](O)C(=O)N[C@@H](CO)c1ccccc1
20,1.7,CCCSC[C@@H](N)[C@H](O)C(=O)NOc1ccccc1
21,34,CC(C)CSC[C@@H](N)[C@H](O)C(=O)NNc1cccc2ccccc12
22,1.3,CCSCC[C@@H](N)[C@H](O)C(=O)NOc1ccccc1
23,> 100,CN(Cc1cccc2ccccc12)C(=O)[C@@H](O)[C@H](N)CCc1ccccc1
24,12,CCCSC[C@@H](N)[C@H](O)C(=O)N[C@@H](CO)c1ccccc1

# Target: Methionine aminopeptidase 2 (Homo sapiens, UniProt P50579)
# Sequence (P50579 whole entry): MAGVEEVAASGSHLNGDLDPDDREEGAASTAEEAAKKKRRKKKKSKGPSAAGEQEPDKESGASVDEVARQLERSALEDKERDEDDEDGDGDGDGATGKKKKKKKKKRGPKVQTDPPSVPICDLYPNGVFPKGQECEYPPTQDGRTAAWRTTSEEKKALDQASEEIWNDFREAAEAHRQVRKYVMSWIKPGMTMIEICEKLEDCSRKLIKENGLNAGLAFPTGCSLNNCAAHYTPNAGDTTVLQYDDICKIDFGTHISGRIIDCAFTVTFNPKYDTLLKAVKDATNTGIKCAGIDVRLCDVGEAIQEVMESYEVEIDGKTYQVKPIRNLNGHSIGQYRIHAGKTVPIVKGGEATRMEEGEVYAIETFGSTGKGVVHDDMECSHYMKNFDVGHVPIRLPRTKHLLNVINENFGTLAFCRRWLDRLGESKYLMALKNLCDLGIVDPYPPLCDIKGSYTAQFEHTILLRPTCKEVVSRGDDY
# Assay: Inhibitory activity against human methionine aminopeptidase-2
row,Structure (SMILES),IC50 [µM]
1,CC(C)[C@H](C)NC(=O)[C@@H](O)[C@H](N)CC1CCCCC1,> 100

# Species on record: Homo sapiens
# Assay: Inhibitory activity against proliferation of human microvascular endothelial cell
row,Structure (SMILES),IC50 [nM]
1,CC(C)SCC[C@@H](N)[C@H](O)C(=O)NNC(=O)c1cccc(Cl)c1,100
